One experiment addresses T1, NLRP3 inflammasome (Homo sapiens, UniProt Q96P20).
T1 construct: IL-1beta HTRF
Put plainly: IL-1β TR-FRET assay (THP-1 cells differentiated to macrophages with IFN-γ, LPS primed, ATP activated; HTRF). The conditions noted are these: THP-1 macrophages, 50 ng/mL LPS priming, compound 30 min, 20 mM ATP 2 hours. It counts as cell-based. How it is done: (§1) The biological activity of Compound (I) with respect to NLRP3 was determined using the following in vitro methods.
IL-1β TR-FRET Assay (Reported as IC50)
Monocytic THP-1 cells (ATCC: TIB-202) were maintained in accordance with the provider's instructions in RPMI media (Life Technologies, Cat #A10491-01); RPMI was supplemented with 10% heat inactivated fetal bovine serum (Corning, Cat #35-010-CV). The cells were differentiated into macrophages by the addition of 25 ng/mL IFN-γ (PeproTech, Cat #AF300-02-100UG) for 24 hours at 37 °C/5% CO2. Media was exchanged with fresh media with no FBS, and the cells were treated with 50 ng/mL LPS (priming step) (LPS-EK: Invivogen, Cat #tlrl-peklps). The cells were plated at 240,000 cells per well in 384-well flat-bottom cell culture plates (FALCON, Cat #353962) and were incubated for 24 hours at 37 °C/5% CO2. Compounds were serially diluted (half log dilutions) with DMSO and were finally diluted with Media with no FBS. The compounds were added to the cells in 384-well plates (added in 1:3) and then the plates were incubated for 30 minutes at 37 °C/5% CO2. The NLRP3 inflammasome was activated with the addition of 20 mM ATP (Sigma Cat #A3377-25G) and the cells were incubated for 2 hours at 37 °C/5% CO2. At the end of the incubation period, 30 μL supernatant was transferred to another 384-well plate and mixed on a plate shaker for 1 minutes. The supernatant was mixed with HTRF Antibody (Human IL1 beta kit, Cisbio, 62HIL1BPEH) in assay plates (Greiner Bio-One, Cat #784075) and the assay plates were incubated in shading box at room temperature for 16-24 hours. HTRF signal was measured by EnVision (Perkinelmer) in accordance with the manufacturer's instructions.
(§2) The IC50 values were calculated from a plot of percentage of inhibition versus the inhibitor concentration by a logistics curve fit according to: Y=[Bottom+(Top−Bottom)]/(1+10^[(Log IC50−X)·Hill Slope], where Y is the % inhibition at the inhibitor concentration, X, “Bottom” is the lowest inhibition value, i.e., 0%, “Top” is the maximum inhibition value, i.e., 100%, and the “Hill Slope” describes the slope of the sigmoidal curve between the “Bottom” and “Top” values. The curve fitting was conducted with XLfit (ver. 5.5.0.5, ID Business Solutions Limited) or internally developed software.
(§3) Table 2 lists in vitro biological assay data (IL-1β and TNF-α) for the compounds shown in the examples. These assays are described in the section entitled Biological Activity, above.
In general terms: TR-FRET usually uses a lanthanide donor and a delayed reading to cut background.

The test system of another experiment is NF-κB pathway. Put plainly: TNF-α assay (THP-1 cells differentiated to macrophages with IFN-γ, NF-κB pathway activated with LPS; ELISA). The class given is cell-based, Human. The conditions noted are these: compound 30 min, 50 ng/mL LPS 3 hours. The procedure:
as §1
TNF-α Assay (Reported as IC50)
Monocytic THP-1 cells (ATCC: TIB-202) were maintained in accordance with the provider's instructions in RPMI media (Life Technologies, Cat #A10491-01); RPMI was supplemented with 10% heat inactivated fetal bovine serum (Hyclone Cat #SH30396.03). The cells were differentiated into macrophages by the addition of 25 ng/mL IFN-γ for 24 hours at 37 °C/5% CO2. Media was exchanged with fresh media with no FBS. The cells were plated at 40,000 cells per well in 384-well flat-bottom cell culture plates (Costar 3764) containing compounds (added in 1:1000) in a 1:3.16 serial dilution series in DMSO and were incubated for 30 minutes at 37 °C/5% CO2. The NF-κB pathway was activated with the addition of 50 ng/mL LPS and the cells were incubated for 3 hours at 37 °C/5% CO2. At the end of the incubation period, supernatant ([…]) was removed, and […] were monitored using an ELISA (Human TNF-α ELISA, R&D systems, Cat #DY210) according to the manufacturer's instructions.
as §2, §3

Where [1] appears, read: Homo sapiens, THP-1, THP-1 macrophages.

pIC50: −log10 of the molar value.

T1 sequence (Q96P20 whole entry): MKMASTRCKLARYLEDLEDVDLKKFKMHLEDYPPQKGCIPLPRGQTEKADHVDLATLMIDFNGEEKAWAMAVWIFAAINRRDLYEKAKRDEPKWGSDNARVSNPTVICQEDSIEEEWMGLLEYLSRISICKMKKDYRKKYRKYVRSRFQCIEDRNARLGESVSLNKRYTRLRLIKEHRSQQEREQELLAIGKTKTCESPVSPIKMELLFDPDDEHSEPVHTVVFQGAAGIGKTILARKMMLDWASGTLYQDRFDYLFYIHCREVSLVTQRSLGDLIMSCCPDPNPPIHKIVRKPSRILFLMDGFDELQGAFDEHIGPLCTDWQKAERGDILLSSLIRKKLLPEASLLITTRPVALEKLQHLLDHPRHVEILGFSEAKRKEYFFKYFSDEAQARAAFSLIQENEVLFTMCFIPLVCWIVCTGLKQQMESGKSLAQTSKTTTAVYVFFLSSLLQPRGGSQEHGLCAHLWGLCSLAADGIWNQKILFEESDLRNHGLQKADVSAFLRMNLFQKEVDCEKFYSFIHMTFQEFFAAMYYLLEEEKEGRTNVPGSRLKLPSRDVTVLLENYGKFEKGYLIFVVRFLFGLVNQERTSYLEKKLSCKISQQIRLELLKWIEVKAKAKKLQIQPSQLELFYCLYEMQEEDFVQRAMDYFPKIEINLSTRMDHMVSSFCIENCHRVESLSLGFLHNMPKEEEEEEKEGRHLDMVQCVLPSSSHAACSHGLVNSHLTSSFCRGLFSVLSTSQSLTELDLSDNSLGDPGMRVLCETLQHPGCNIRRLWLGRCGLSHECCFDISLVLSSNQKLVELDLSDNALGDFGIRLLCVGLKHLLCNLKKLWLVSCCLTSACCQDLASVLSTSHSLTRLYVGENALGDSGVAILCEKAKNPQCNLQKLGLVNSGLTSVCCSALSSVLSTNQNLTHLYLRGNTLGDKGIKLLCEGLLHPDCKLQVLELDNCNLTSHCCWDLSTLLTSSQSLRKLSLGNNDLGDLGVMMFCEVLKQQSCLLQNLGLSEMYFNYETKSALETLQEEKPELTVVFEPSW

With `Cc1cc(C)c(-n2cc3sc(N[C@@H]4CCCN(C5CCOC5)C4)nc3n2)c(O)c1` (single isomer, unassigned) [Example 71, 3,5-dimethyl-2-[5-({(3R)-1-[(S)-oxolan-3-yl]piperidin-3-yl}amino)-2H-pyrazolo[3,4-d][1,3]thiazol-2-yl]phenol or 3,5-dimethyl-2-[5-({(3R)-1-[(R)-oxolan-3-yl]piperidin-3-yl}amino)-2H-pyrazolo[3,4-d][1,3]thiazol-2-yl]phenol (tR1)], the pIC50 (usually −log10 of the IC50, conventionally taken in molar units) on NLRP3 inflammasome was 7.37; in the experiment on NF-κB pathway (setting [1]), below 4.52.
In the case of `Cc1cc(C)c(-n2cc3sc(N[C@@H]4CCCN(C5CCOC5)C4)nc3n2)c(O)c1` (single isomer, unassigned) [Example 72, 3,5-dimethyl-2-[5-({(3R)-1-[(S)-oxolan-3-yl]piperidin-3-yl}amino)-2H-pyrazolo[3,4-d][1,3]thiazol-2-yl]phenol or 3,5-dimethyl-2-[5-({(3R)-1-[(R)-oxolan-3-yl]piperidin-3-yl}amino)-2H-pyrazolo[3,4-d][1,3]thiazol-2-yl]phenol (tR2)], the figures for the pIC50 at NLRP3 inflammasome and in the experiment on NF-κB pathway (THP-1 macrophages) were 7.54 and below 4.52, respectively.
On to `Cc1cc(C)c(-n2cc3sc(N[C@@H]4C[C@@H](F)CN(C5CCOC5)C4)nc3n2)c(O)c1` (single isomer, unassigned) [Example 73, 2-[5-({(3R,5R)-5-fluoro-1-[(S)-oxolan-3-yl]piperidin-3-yl}amino)-2H-pyrazolo[3,4-d][1,3]thiazol-2-yl]-3,5-dimethylphenol or 2-[5-({(3R,5R)-5-fluoro-1-[(R)-oxolan-3-yl]piperidin-3-yl}amino)-2H-pyrazolo[3,4-d][1,3]thiazol-2-yl]-3,5-dimethylphenol (tR1)], for which the values for the pIC50 at NLRP3 inflammasome and in the experiment with NF-κB pathway (setting [1]) were 6.07 and below 4.52, respectively.
With `Cc1cc(C)c(-n2cc3sc(N[C@@H]4C[C@@H](F)CN(C5CCOC5)C4)nc3n2)c(O)c1` (single isomer, unassigned) [Example 74, 2-[5-({(3R,5R)-5-fluoro-1-[(S)-oxolan-3-yl]piperidin-3-yl}amino)-2H-pyrazolo[3,4-d][1,3]thiazol-2-yl]-3,5-dimethylphenol or 2-[5-({(3R,5R)-5-fluoro-1-[(R)-oxolan-3-yl]piperidin-3-yl}amino)-2H-pyrazolo[3,4-d][1,3]thiazol-2-yl]-3,5-dimethylphenol (tR2)], the values for the pIC50 against NLRP3 inflammasome and with NF-κB pathway (THP-1 macrophages) were 6.25 and below 4.52, respectively.
For `Cc1cc(O)c(-n2cc3sc(N[C@@H]4C[C@@H](F)CN(C)C4)nc3n2)c(C2CC2(F)F)c1` (single isomer, unassigned) [Example 126, 3-[(R)-2,2-difluorocyclopropyl]-2-(5-{[(3R,5R)-5-fluoro-1-methylpiperidin-3-yl]amino}-2H-pyrazolo[3,4-d][1,3]thiazol-2-yl)-5-methylphenol or 3-[(S)-2,2-difluorocyclopropyl]-2-(5-{[(3R,5R)-5-fluoro-1-methylpiperidin-3-yl]amino}-2H-pyrazolo[3,4-d][1,3]thiazol-2-yl)-5-methylphenol (tR2)], the pIC50 on NLRP3 inflammasome is 8.42; in the experiment with NF-κB pathway (setting [1]), below 4.52.
Take `Cc1cc(O)c(-n2cc3sc(N[C@@H]4C[C@@H](F)CN(C)C4)nc3n2)c(C2CC2(F)F)c1` (single isomer, unassigned) [Example 127, 3-[(R)-2,2-difluorocyclopropyl]-2-(5-{[(3R,5R)-5-fluoro-1-methylpiperidin-3-yl]amino}-2H-pyrazolo[3,4-d][1,3]thiazol-2-yl)-5-methylphenol or 3-[(S)-2,2-difluorocyclopropyl]-2-(5-{[(3R,5R)-5-fluoro-1-methylpiperidin-3-yl]amino}-2H-pyrazolo[3,4-d][1,3]thiazol-2-yl)-5-methylphenol (tR1)]: the values for the pIC50 on NLRP3 inflammasome and with NF-κB pathway (THP-1 macrophages) were 7.82 and below 4.52, respectively.
As to `Cc1cc(C)c(-n2cc3sc(N[C@H]4COC[C@@H]4F)nc3n2)c(O)c1` (single isomer, unassigned) [Example 142, 2-(5-{[(3R,4S)-4-fluorooxolan-3-yl]amino}-2H-pyrazolo[3,4-d][1,3]thiazol-2-yl)-3,5-dimethylphenol or 2-(5-{[(3S,4R)-4-fluorooxolan-3-yl]amino}-2H-pyrazolo[3,4-d][1,3]thiazol-2-yl)-3,5-dimethylphenol (tR1)], the pIC50 at NLRP3 inflammasome is 6.26; with NF-κB pathway (setting [1]) it was below 4.52.
Consider `Cc1cc(C)c(-n2cc3sc(N[C@H]4COC[C@@H]4F)nc3n2)c(O)c1` (single isomer, unassigned) [Example 143, 2-(5-{[(3R,4S)-4-fluorooxolan-3-yl]amino}-2H-pyrazolo[3,4-d][1,3]thiazol-2-yl)-3,5-dimethylphenol or 2-(5-{[(3S,4R)-4-fluorooxolan-3-yl]amino}-2H-pyrazolo[3,4-d][1,3]thiazol-2-yl)-3,5-dimethylphenol (tR2)], for which the pIC50 on NLRP3 inflammasome is 6.37; in the experiment with NF-κB pathway (THP-1 macrophages), below 4.52.
`Cc1cc(C)c(-n2cc3sc(N[C@H]4COC[C@H]4F)nc3n2)c(O)c1` (single isomer, unassigned) [Example 145, 2-(5-{[(3R,4R)-4-fluorooxolan-3-yl]amino}-2H-pyrazolo[3,4-d][1,3]thiazol-2-yl)-3,5-dimethylphenol or 2-(5-{[(3S,4S)-4-fluorooxolan-3-yl]amino}-2H-pyrazolo[3,4-d][1,3]thiazol-2-yl)-3,5-dimethylphenol (tR2)]: the results for the pIC50 against NLRP3 inflammasome and with NF-κB pathway (THP-1 macrophages) were 6.36 and below 4.52, respectively.
Turning to `Cc1cc(C)c(-n2cc3sc(N[C@H]4CN(C)CCC4F)nc3n2)c(O)c1` (stereo in doubt) [Example 10, 2-(5-{[(3S,4S)-4-fluoro-1-methylpiperidin-3-yl]amino}-2H-pyrazolo[3,4-d][1,3]thiazol-2-yl)-3,5-dimethylphenol], the negative-log IC50 (pIC50) against NLRP3 inflammasome was 7.34; with NF-κB pathway (THP-1 macrophages) it was below 5.00.
For the compound `CN1CCC[C@@H](Nc2nc3nn(-c4ccc(Br)cc4O)cc3s2)C1` [Example 1, 5-bromo-2-(5-{[(3R)-1-methylpiperidin-3-yl]amino}-2H-pyrazolo[3,4-d][1,3]thiazol-2-yl)phenol], the pIC50 is 7.60 on NLRP3 inflammasome and below 5.00 with NF-κB pathway (setting [1]).
On the same counts, the results for `Cc1cc(Cl)cc(O)c1-n1cc2sc(N[C@@H]3CCCN(C)C3)nc2n1` [Example 2, 5-chloro-3-methyl-2-(5-{[(3R)-1-methylpiperidin-3-yl]amino}-2H-pyrazolo[3,4-d][1,3]thiazol-2-yl)phenol] are 8.80 and below 4.52.
`Cc1cc(C)c(-n2cc3sc(N[C@@H]4C[C@@H](F)CN(C)C4)nc3n2)c(O)c1` [Example 3, 2-(5-{[(3R,5R)-5-fluoro-1-methylpiperidin-3-yl]amino}-2H-pyrazolo[3,4-d][1,3]thiazol-2-yl)-3,5-dimethylphenol]: the figures for the pIC50 against NLRP3 inflammasome and in the experiment on NF-κB pathway (setting [1]) were 8.09 and below 4.52, respectively.
In the case of `Cc1cc(C)c(-n2cc3sc(N[C@@H]4CCCN(C)C4)nc3n2)c(O)c1` [Example 4, 3,5-dimethyl-2-(5-{[(3R)-1-methylpiperidin-3-yl]amino}-2H-pyrazolo[3,4-d][1,3]thiazol-2-yl)phenol], the pIC50 is 8.44 on NLRP3 inflammasome and below 4.52 with NF-κB pathway (setting [1]).
As for `Cc1cc(F)cc(O)c1-n1cc2sc(N[C@@H]3CCCN(C)C3)nc2n1` [Example 5, 5-fluoro-3-methyl-2-(5-{[(3R)-1-methylpiperidin-3-yl]amino}-2H-pyrazolo[3,4-d][1,3]thiazol-2-yl)phenol], the results for the pIC50 against NLRP3 inflammasome and in the experiment on NF-κB pathway (setting [1]) were 7.82 and below 4.52, respectively.

For the origin of these results see patent US20260365671A1, “HETEROCYCLIC COMPOUND” (Takeda Pharmaceutical Company Limited, priority 2022, published 2026).
